Measurements published in patent US12599136B2, “Substituted isophthalic acid diamides and their use as herbicides” (Bayer Aktiengesellschaft, priority 2020, dated 2026).

Tests used:
Type in all cases: in vivo
Abutilon theophrasti [1] = assay: Pre-emergence herbicidal action against ABUTH; conditions: visual score after 3 weeks vs untreated controls
From the text: (§1) Seeds of monocotyledonous and dicotyledonous weed plants and crop plants are laid out in sandy loam soil in wood-fiber pots and covered with soil. The compounds of the invention, formulated in the form of wettable powders (WP) or as emulsion concentrates (EC), are then applied to the surface of the covering soil in the form of an aqueous suspension or emulsion at a water application rate equivalent to 600 to 800 l/ha, with addition of 0.2% wetting agent. After the treatment, the pots are placed in a greenhouse and kept under good growth conditions for the trial plants. The damage to the test plants is scored visually after a test period of 3 weeks by comparison with untreated controls (herbicidal activity in percent (%): 100% activity=the plants have died, 0% activity=like control plants). […] The tables below illustrate, in an illustrative manner, the post-emergence herbicidal action of the compounds of the invention, the herbicidal activity being stated in percent.

Echinochloa crus-galli [2] = assay: Pre-emergence herbicidal action against ECHCG; conditions: 80 g/ha; visual score after 3 weeks vs untreated controls
From the text: as §1

Alopecurus myosuroides [3] = assay: Pre-emergence herbicidal action against ALOMY; conditions: visual score after 3 weeks vs untreated controls
From the text: as §1

Setaria viridis [4] = assay: Pre-emergence herbicidal action against SETVI
From the text: as §1

Viola tricolor [5] = assay: Post-emergence herbicidal action against VIOTR
Method: (§2) Seeds of monocotyledonous and dicotyledonous weed and crop plants are laid out in sandy loam soil in wood-fiber pots, covered with soil and cultivated in a greenhouse under good growth conditions. 2 to 3 weeks after sowing, the test plants are treated at the one-leaf stage. The compounds of the invention, formulated in the form of wettable powders (WP) or as emulsion concentrates (EC), are then sprayed onto the green parts of the plants in the form of an aqueous suspension or emulsion at a water application rate equivalent to 600 to 800 l/ha, with addition of 0.2% wetting agent. After the test plants have been left to stand in the greenhouse under optimal growth conditions for about 3 weeks, the action of the preparations is assessed visually in comparison to untreated controls (herbicidal action in percent (%): 100% activity=the plants have died, 0% activity=like control plants). […] The tables below illustrate, in an illustrative manner, the post-emergence herbicidal action of the compounds of the invention, the herbicidal activity being stated in percent.

Pharbitis purpurea = assay: Post-emergence herbicidal action against PHBPU; conditions: 20 g/ha, visual assessment about 3 weeks after treatment
Method: as §2

Amaranthus retroflexus [6] = assay: Post-emergence herbicidal action against AMARE; conditions: visual assessment about 3 weeks after treatment
Method: as §2

Amaranthus retroflexus [7] = assay: Pre-emergence herbicidal action against AMARE; conditions: visual score after 3 weeks vs untreated controls
From the text: as §1

Setaria viridis [8] = assay: Post-emergence herbicidal action against SETVI; conditions: visual assessment about 3 weeks after treatment
Method: as §2

Matricaria inodora [9] = assay: Pre-emergence herbicidal action against MATIN; conditions: visual score after 3 weeks vs untreated controls
From the text: as §1

Abutilon theophrasti [10] = assay: Post-emergence herbicidal action against ABUTH
Method: as §2

Veronica persica [11] = assay: Post-emergence herbicidal action against VERPE; conditions: 20 g/ha, visual assessment about 3 weeks after treatment
Method: as §2

Echinochloa crus-galli [12] = assay: Post-emergence herbicidal action against ECHCG; conditions: 20 g/ha, visual assessment about 3 weeks after treatment
Method: as §2

Veronica persica [13] = assay: Pre-emergence herbicidal action against VERPE; conditions: 80 g/ha
From the text: as §1

Alopecurus myosuroides [14] = assay: Post-emergence herbicidal action against ALOMY; conditions: 20 g/ha
Method: as §2

Matricaria inodora [15] = assay: Post-emergence herbicidal action against MATIN; conditions: visual assessment about 3 weeks after treatment
Method: as §2

Viola tricolor [16] = assay: Pre-emergence herbicidal action against VIOTR
From the text: as §1

Avena fatua = assay: Pre-emergence herbicidal action against AVEFA; conditions: 80 g/ha; visual score after 3 weeks vs untreated controls
From the text: as §1

SMILES | Pre-emergence action against ABUTH (Abutilon theophrasti [1]; 80 g/ha) | Pre-emergence action against ECHCG (Echinochloa crus-galli [2]) | Pre-emergence action against ALOMY (Alopecurus myosuroides [3]; 80 g/ha) | Pre-emergence action against SETVI (Setaria viridis [4]; 80 g/ha) | Post-emergence action against VIOTR in % (Viola tricolor [5]; 20 g/ha) | Post-emergence action against PHBPU in % (Pharbitis purpurea) | Post-emergence action against AMARE in % (Amaranthus retroflexus [6]; 5 g/ha) | Post-emergence action against AMARE in % (Amaranthus retroflexus [6]; 20 g/ha) | Pre-emergence action against AMARE (Amaranthus retroflexus [7]; 20 g/ha) | Pre-emergence action against AMARE (Amaranthus retroflexus [7]; 80 g/ha) | Post-emergence action against SETVI in % (Setaria viridis [8]; 20 g/ha) | Pre-emergence action against MATIN (Matricaria inodora [9]; 20 g/ha) | Pre-emergence action against MATIN (Matricaria inodora [9]; 80 g/ha) | Post-emergence action against ABUTH (Abutilon theophrasti [10]; 5 g/ha) | Post-emergence action against ABUTH (Abutilon theophrasti [10]; 20 g/ha) | Post-emergence action against VERPE in % (Veronica persica [11]) | Post-emergence action against ECHCG in % (Echinochloa crus-galli [12]) | Post-emergence action against MATIN in % (Matricaria inodora [15]; 20 g/ha) | Pre-emergence action against VIOTR (Viola tricolor [16]; 80 g/ha) | Pre-emergence action against ABUTH (Abutilon theophrasti [1]; 20 g/ha) | other results
Cc1c(C(=O)Nc2nnnn2C)ccc(C(F)F)c1C(=O)N(C)C [Example 1-50] | 100% | 80% | 80% | 80% | 80% | 80% | 90% | 100% | 90% | 100% | 80% | 80% | 90% | 80% | 90% | 80% | 80% |  |  |  | 
CCN(C)C(=O)c1c(C(F)F)ccc(C(=O)Nc2nnnn2C)c1C [Example 1-51] | 100% | 90% | 80% | 80% | 90% | 90% | 100% | 100% | 80% | 100% | 80% |  | 90% | 80% | 80% | 80% | 80% | 80% | 90% |  | Pre-emergence action against VERPE (Veronica persica [13]): 80%; Post-emergence action against ALOMY (Alopecurus myosuroides [14]): 80%; Post-emergence action against VIOTR in % (Viola tricolor [5]; 5 g/ha): 80%; Post-emergence action against SETVI in % (Setaria viridis [8]; 5 g/ha): 80%
Cn1nnnc1NC(=O)c1ccc(C(F)F)c(C(=O)N(C2CC2)C2CC2)c1Cl [Example 1-175] | 100% |  |  |  |  |  | 100% | 100% | 80% | 100% |  | 90% | 90% | 80% | 90% |  |  | 90% | 90% | 90% | 
CCOC(=O)[C@@H]1CCCN1C(=O)c1c(C(F)F)ccc(C(=O)Nc2nnnn2C)c1Cl [Example 1-402] |  |  |  |  |  |  |  | 90% |  | 100% |  |  | 90% |  |  |  |  |  |  |  | 
CCN(CC)C(=O)c1c(C(F)F)ccc(C(=O)Nc2nnnn2CC)c1C [Example 2-59] | 100% | 90% | 90% |  | 90% |  | 100% | 100% | 80% | 100% | 90% | 90% | 100% | 90% | 90% | 90% | 90% | 90% | 100% | 100% | Pre-emergence action against VERPE (Veronica persica [13]): 90%; Post-emergence action against ALOMY (Alopecurus myosuroides [14]): 90%; Post-emergence action against VIOTR in % (Viola tricolor [5]; 5 g/ha): 80%; Post-emergence action against SETVI in % (Setaria viridis [8]; 5 g/ha): 90%; Post-emergence action against MATIN in % (Matricaria inodora [15]; 5 g/ha): 80%; Pre-emergence action against VIOTR (Viola tricolor [16]; 20 g/ha): 100%
CCn1nnnc1NC(=O)c1ccc(C(F)(F)F)c(C(=O)N(C2CC2)C2CC2)c1Cl [Example 2-144] | 100% |  |  |  |  |  | 90% | 90% |  | 100% |  |  | 100% |  |  |  |  | 80% | 100% | 90% | 
CCn1nnnc1NC(=O)c1ccc(C(F)F)c(C(=O)N(C2CC2)C2CC2)c1Cl [Example 2-175] | 100% |  | 90% |  | 80% |  | 100% | 100% | 100% | 100% |  | 90% | 100% | 80% | 90% |  |  |  | 90% | 100% | Pre-emergence action against ALOMY (Alopecurus myosuroides [3]; 20 g/ha): 80%
CCn1nnnc1NC(=O)c1ccc(Br)c(C(=O)N(C)C)c1Cl [Example 2-191] | 100% | 100% | 100% | 100% | 80% | 80% | 100% | 100% | 100% | 100% | 100% | 90% | 100% | 90% | 90% |  |  |  | 80% | 90% | Pre-emergence action against ALOMY (Alopecurus myosuroides [3]; 20 g/ha): 90%; Pre-emergence action against SETVI (Setaria viridis [4]; 20 g/ha): 100%; Post-emergence action against ALOMY (Alopecurus myosuroides [14]): 100%; Post-emergence action against SETVI in % (Setaria viridis [8]; 5 g/ha): 100%; Pre-emergence action against AVEFA (Avena fatua): 90%
